Like-named read-outs stand apart in the source and are kept apart here. Non-standard residues stand in square brackets, D forms with d. Residues, ends and D or L forms follow the SMILES beside them. *: point of attachment. βGlc = OC[C@H]1O[C@@H](*)[C@H](O)[C@@H](O)[C@@H]1O; Nle = CCCC[C@H](N)C(=O)O; Nva = CCC[C@H](N)C(=O)O
Tests used:
[1] = target: T1, human delta opioid receptor (hDOR) (Homo sapiens, UniProt P41143); assay: Radioligand competition binding, [3H]naltrindole, hDOR CHO cell membranes; conditions: for rank order of affinity for the delta receptor: peptides at 100 nM and 1 nM vs. 0.2 nM [3H]Naltrindole, 20 ug hDOR CHO cell membranes (FIGS. 1 and 2)
T1 construct: expressed in transfected cells; membranes
T1 sequence (P41143 whole entry): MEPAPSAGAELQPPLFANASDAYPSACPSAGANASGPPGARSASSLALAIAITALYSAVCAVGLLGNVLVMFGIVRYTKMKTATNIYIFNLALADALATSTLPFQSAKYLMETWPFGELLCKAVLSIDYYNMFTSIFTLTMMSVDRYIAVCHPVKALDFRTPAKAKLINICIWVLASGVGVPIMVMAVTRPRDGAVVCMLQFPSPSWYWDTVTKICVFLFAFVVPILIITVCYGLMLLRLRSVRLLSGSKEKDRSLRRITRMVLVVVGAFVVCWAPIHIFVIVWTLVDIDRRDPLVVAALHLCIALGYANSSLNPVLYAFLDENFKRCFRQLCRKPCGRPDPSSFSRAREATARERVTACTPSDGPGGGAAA

[2] = target: T2, human kappa opioid receptor (hKOR) (Homo sapiens, UniProt P41145); assay: Radioligand binding, [3H]U69,593, hKOR CHO cell membranes; conditions: peptide at 10 uM, read-out: Max Inhib at 10 uM (%) Kappa [3H]U69,593 Mean
T2 construct: expressed in transfected cells; membranes
T2 sequence (P41145 whole entry): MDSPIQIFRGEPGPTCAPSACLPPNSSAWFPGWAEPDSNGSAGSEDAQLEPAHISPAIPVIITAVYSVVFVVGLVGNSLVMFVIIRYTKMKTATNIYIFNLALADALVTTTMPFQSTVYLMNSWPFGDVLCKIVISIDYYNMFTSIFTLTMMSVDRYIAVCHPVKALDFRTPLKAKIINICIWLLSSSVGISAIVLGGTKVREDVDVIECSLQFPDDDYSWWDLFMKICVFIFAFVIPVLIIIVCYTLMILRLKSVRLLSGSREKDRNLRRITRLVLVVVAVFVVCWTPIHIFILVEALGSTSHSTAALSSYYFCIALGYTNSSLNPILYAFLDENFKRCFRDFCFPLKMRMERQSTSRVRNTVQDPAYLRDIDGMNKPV

[3] = target: T3, human mu opioid receptor (hMOR) (Homo sapiens, UniProt P35372); assay: Radioligand competition binding, [3H]DAMGO, hMOR CHO cell membranes
T3 construct: expressed in transfected cells; membranes
T3 sequence (P35372 whole entry): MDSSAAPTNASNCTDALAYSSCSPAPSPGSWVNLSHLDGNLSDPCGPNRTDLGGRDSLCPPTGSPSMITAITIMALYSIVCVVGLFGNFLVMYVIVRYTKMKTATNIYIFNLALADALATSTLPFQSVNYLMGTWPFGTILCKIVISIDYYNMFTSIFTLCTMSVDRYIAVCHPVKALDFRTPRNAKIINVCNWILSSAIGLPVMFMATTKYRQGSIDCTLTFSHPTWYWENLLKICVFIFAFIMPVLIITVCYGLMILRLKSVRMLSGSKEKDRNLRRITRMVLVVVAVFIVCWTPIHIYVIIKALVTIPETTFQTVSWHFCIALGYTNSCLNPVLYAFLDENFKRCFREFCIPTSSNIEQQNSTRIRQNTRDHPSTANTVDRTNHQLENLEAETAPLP

[4] = target: T4, hMOR (Homo sapiens, UniProt P35372); assay: [35S]GTPγS binding assay, hMOR CHO cell membranes; type: biochemical; conditions: for Antagonist Properties Imax (%) Mu Mean: cell wraps over r13-r15: No Inhibition; for Description: Mu: functional classification; for Emax: hMOR CHO cell membranes, @ 10 um, read-out: Agonist Properties EMax (%) Mu Mean
T4 construct: expressed in transfected cells; membranes
T4 sequence (P35372 whole entry): as above
Description: (§1) GTPγS binding assay to determine if the peptide is an agonist, antagonist, or partial agonist at the DOR. Membranes from the CHO cell lines, expressing either the MOR, DOR or KOR, will be incubated with 12 concentrations of each peptide for 60 min at 30° C. in a final volume of 0.5 mL of assay buffer (50 mM Tris-HCl, 3 mM MgCl2, 0.2 mM EGTA, 100 mM NaCl, pH 7.5) containing 3 μM GDP and 0.08 nM [^35S] GTPγS. Basal binding is determined in the presence of GDP and the absence of opioids, and nonspecific binding is determined by including 10 μM unlabeled […] GTPγS. The incubation is terminated by filtration under vacuum through glass fiber filters, followed by three washes with 3-ml ice-cold 50 mM Tris-HCl, pH 7.5. Samples are allowed to equilibrate overnight and are counted in 2 ml of Ecoscint A scintillation fluid for 2 min in a liquid scintillation counter.
(§2) GTPγS binding assay described in Example 3.

[5] = target: T5, hDOR (Homo sapiens, UniProt P41143); assay: [35S]GTPγS binding assay, hDOR CHO cell membranes; type: biochemical; conditions: for Antagonist Properties Imax (%) Delta Mean: cell wraps over r13-r15: No Inhibition; for Description: Delta: functional classification; for Emax: read-out: Agonist Properties EMax (%) Delta Mean
T5 construct: expressed in transfected cells; membranes
T5 sequence (P41143 whole entry): as the sequence (P41143 whole entry) above
Description: as §1, §2

[6] = test system: mouse tail flick; assay: Mouse tail flick assay, oral availability of formulations; type: in vivo; conditions: for antinociceptive activity: 32 mg/kg

H2N-YaFE-Nle-Nle-S(beta-D-Glc)-amide (H-Y[dA]FE[Nle][Nle]S(βGlc)-NH2; SMILES CCCC[C@H](NC(=O)[C@H](CCCC)NC(=O)[C@H](CCC(=O)O)NC(=O)[C@H](Cc1ccccc1)NC(=O)[C@@H](C)NC(=O)[C@@H](N)Cc1ccc(O)cc1)C(=O)N[C@@H](CO[C@@H]1O[C@H](CO)[C@@H](O)[C@H](O)[C@H]1O)C(N)=O) [Peptide 11006]
rank order of affinity for the delta receptor [1]: [11001≈111003≈11008≈DPDDE]>[11005≈11006≈11007]>[11002≈11004]>Lsz27

CCC[C@H](NC(=O)[C@H](CCC)NC(=O)[C@H](CCC(=O)O)NC(=O)[C@H](Cc1ccccc1)NC(=O)[C@@H](C)NC(=O)[C@@H](N)Cc1ccc(O)cc1)C(=O)N[C@@H](CO[C@@H]1O[C@H](CO)[C@@H](O)[C@H](O)[C@H]1O)C(N)=O [Peptide 11005, H2N-YaFE-Nva-Nva-S(beta-D-Glc)-amide] (H-Y[dA]FE[Nva][Nva]S(βGlc)-NH2)
IC50 [1]: 61 nM | Ki [1]: 20 nM | rank order of affinity for the delta receptor [1]: [11001≈111003≈11008≈DPDDE]>[11005≈11006≈11007]>[11002≈11004]>Lsz27 | inhibition at 10 µM [2]: 5.3% | Ki [3]: 710 nM

H2N-YmFHLMS(beta-D-Glc)-amide (H-Y[dM]FHLMS(βGlc)-NH2; SMILES CSCC[C@H](NC(=O)[C@H](CC(C)C)NC(=O)[C@H](Cc1c[nH]cn1)NC(=O)[C@H](Cc1ccccc1)NC(=O)[C@@H](CCSC)NC(=O)[C@@H](N)Cc1ccc(O)cc1)C(=O)N[C@@H](CO[C@@H]1O[C@H](CO)[C@@H](O)[C@H](O)[C@H]1O)C(N)=O) [Peptide 11001]
rank order of affinity for the delta receptor [1]: [11001≈111003≈11008≈DPDDE]>[11005≈11006≈11007]>[11002≈11004]>Lsz27

CCCC[C@H](NC(=O)[C@H](CCC(=O)O)NC(=O)[C@H](Cc1ccccc1)NC(=O)[C@@H](C)NC(=O)[C@@H](N)Cc1ccc(O)cc1)C(=O)N[C@@H](CCCC)C(=O)N[C@H](C(N)=O)[C@@H](C)O[C@@H]1O[C@H](CO)[C@@H](O)[C@H](O)[C@H]1O [Peptide 11008, H2N-YaFE-Nle-Nle-T(beta-D-Glc)-amide] (H-Y[dA]FE[Nle][Nle]T(βGlc)-NH2)
IC50 [1]: 42 nM | Ki [1]: 14 nM | rank order of affinity for the delta receptor [1]: [11001≈111003≈11008≈DPDDE]>[11005≈11006≈11007]>[11002≈11004]>Lsz27 | lower affinity for delta than DPDPE ([1]; relative to DPDPE): ~3 fold | Antagonist Properties Imax (%) Mu Mean [4]: No | Description: Mu [4]: Very weak agonist | Emax [4]: 27% | EC50 [5]: 12 nM | Antagonist Properties Imax (%) Delta Mean [5]: No | Description: Delta [5]: Agonist | Emax ([5]; hDOR CHO cell membranes): 75% | efficacy of oral formulation versus unformulated glycopeptide ([6]; oral formulation, 3.2 mg/kg): just slightly lower efficacy than that produced by 32 mg/kg of unformulated glycopeptide 11008 | antinociceptive activity ([6]; oral formulation): 75% | antinociceptive activity ([6]; saline formulation (unformulated)): 30% | inhibition at 10 µM [2]: 2.9% | Ki [3]: 1100 nM

H2N-YaFHLAT(beta-D-Glc)-amide (H-Y[dA]FHLAT(βGlc)-NH2; SMILES CC(C)C[C@H](NC(=O)[C@H](Cc1c[nH]cn1)NC(=O)[C@H](Cc1ccccc1)NC(=O)[C@@H](C)NC(=O)[C@@H](N)Cc1ccc(O)cc1)C(=O)N[C@@H](C)C(=O)N[C@H](C(N)=O)[C@@H](C)O[C@@H]1O[C@H](CO)[C@@H](O)[C@H](O)[C@H]1O) [Peptide 11004]
rank order of affinity for the delta receptor [1]: [11001≈111003≈11008≈DPDDE]>[11005≈11006≈11007]>[11002≈11004]>Lsz27

H2N-YmFHLMT(beta-D-Glc)-amide (H-Y[dM]FHLMT(βGlc)-NH2; SMILES CSCC[C@H](NC(=O)[C@H](CC(C)C)NC(=O)[C@H](Cc1c[nH]cn1)NC(=O)[C@H](Cc1ccccc1)NC(=O)[C@@H](CCSC)NC(=O)[C@@H](N)Cc1ccc(O)cc1)C(=O)N[C@H](C(N)=O)[C@@H](C)O[C@@H]1O[C@H](CO)[C@@H](O)[C@H](O)[C@H]1O) [Peptide 11003]
rank order of affinity for the delta receptor [1]: [11001≈111003≈11008≈DPDDE]>[11005≈11006≈11007]>[11002≈11004]>Lsz27

CCCC[C@H](NC(=O)[C@H](CCC(=O)O)NC(=O)[C@H](Cc1ccccc1)NC(=O)[C@@H](C)NC(=O)[C@@H](N)Cc1ccc(O)cc1)C(=O)N[C@@H](CCCC)C(=O)N[C@H](C(N)=O)[C@@H](C)O [Peptide 11009, H2N-YaFE-Nle-Nle-T-amide] (H-Y[dA]FE[Nle][Nle]T-NH2)
Antagonist Properties Imax (%) Mu Mean [4]: No | Description: Mu [4]: Very weak agonist | Emax [4]: 42% | Antagonist Properties Imax (%) Delta Mean [5]: No | Description: Delta [5]: Agonist | EC50 ([5]; hDOR CHO cell membranes, read-out: Agonist Properties EC50 (nM) Delta Mean): 12 nM | Emax ([5]; hDOR CHO cell membranes): 67%

H2N-YaFHLAS(beta-D-Glc)-amide (H-Y[dA]FHLAS(βGlc)-NH2; SMILES CC(C)C[C@H](NC(=O)[C@H](Cc1c[nH]cn1)NC(=O)[C@H](Cc1ccccc1)NC(=O)[C@@H](C)NC(=O)[C@@H](N)Cc1ccc(O)cc1)C(=O)N[C@@H](C)C(=O)N[C@@H](CO[C@@H]1O[C@H](CO)[C@@H](O)[C@H](O)[C@H]1O)C(N)=O) [Peptide 11002]
rank order of affinity for the delta receptor [1]: [11001≈111003≈11008≈DPDDE]>[11005≈11006≈11007]>[11002≈11004]>Lsz27

H2N-YaFE-Nva-Nva-T(beta-D-Glc)-amide (H-Y[dA]FE[Nva][Nva]T(βGlc)-NH2; SMILES CCC[C@H](NC(=O)[C@H](CCC(=O)O)NC(=O)[C@H](Cc1ccccc1)NC(=O)[C@@H](C)NC(=O)[C@@H](N)Cc1ccc(O)cc1)C(=O)N[C@@H](CCC)C(=O)N[C@H](C(N)=O)[C@@H](C)O[C@@H]1O[C@H](CO)[C@@H](O)[C@H](O)[C@H]1O) [Peptide 11007]
rank order of affinity for the delta receptor [1]: [11001≈111003≈11008≈DPDDE]>[11005≈11006≈11007]>[11002≈11004]>Lsz27

Source: patent publication US8575309B2, “Delta-opioid receptor selective analgesics” (Biousian Biosystems, Inc., priority 2008, dated 2013)
